Measurements: US20230180804A1, “FLAVOR COMPOSITION, AND FOOD AND BEVERAGE” (TAKASAGO INTERNATIONAL CORPORATION, priority 2020, published 2023)

Assays:
[1] = Sensory evaluation of p-cresol odor masking in p-cresol-containing citrus-flavored beverage; conditions: for p-Cresol Odor Intensity: beverage with 50 ppb p-cresol, average score of 7 panelists, scale 0-4
[2] = Sensory evaluation of p-cresol odor masking in p-cresol-containing lemon dressing; conditions: lemon dressing with 500 ppb p-cresol; for p-Cresol Odor Intensity: average score of 9 panelists, scale 0-4
Method: To a commercially available lemon dressing, p-cresol adjusted to a concentration of 0.1% with 95% ethanol was added to 500 ppb in the lemon dressing. To this p-cresol-containing lemon dressing, l-oxacycloheptadecan-8-en-2-one was added at the concentrations presented in Table 18 to confirm the p-cresol odor intensity (masking effect) and the influence on the citrus flavor of each sample.
Nine skilled panelists were selected to perform the same sensory evaluation as in Example 1. The results are as in Table 18, presenting the average score of the evaluation results for each panelist.

[3] = Sensory evaluation of p-cresol odor masking in p-cresol-containing grated raw ginger; conditions: for p-Cresol Odor Intensity: grated ginger with 600 ppb p-cresol, average score of 9 panelists, scale 0-4
Method: To commercially available grated raw ginger, p-cresol adjusted to a concentration of 0.1% with 95% ethanol was added to a concentration of 600 ppb in the ginger. To this p-cresol-containing ginger, 1-oxacycloheptadecan-8-en-2-one was added at the concentrations presented in Table 16 to confirm the p-cresol odor intensity (masking effect) and the influence on the ginger flavor of each sample.
Nine skilled panelists were selected to perform the same sensory evaluation as in Example 1. The results are as in Table 16, presenting the average score of the evaluation results for each panelist.

olfactory receptor OR9Q2 = molecular target: T1, olfactory receptor OR9Q2 (Homo sapiens, UniProt Q8NGE9); test: OR9Q2 response inhibitory effect for p-cresol, luciferase reporter gene assay; assay type: cell-based; conditions: p-cresol 100 µM mixed with various concentrations of compound; cells expressing OR9Q2; ratio of Fold Increase value (FIGS. 1 to 11)
T1 construct: 20 N-terminal amino acid residues of bovine rhodopsin (Rho tag); expressed in transfected cells; host or cells: HEK293T
T1 sequence (Q8NGE9 1-314): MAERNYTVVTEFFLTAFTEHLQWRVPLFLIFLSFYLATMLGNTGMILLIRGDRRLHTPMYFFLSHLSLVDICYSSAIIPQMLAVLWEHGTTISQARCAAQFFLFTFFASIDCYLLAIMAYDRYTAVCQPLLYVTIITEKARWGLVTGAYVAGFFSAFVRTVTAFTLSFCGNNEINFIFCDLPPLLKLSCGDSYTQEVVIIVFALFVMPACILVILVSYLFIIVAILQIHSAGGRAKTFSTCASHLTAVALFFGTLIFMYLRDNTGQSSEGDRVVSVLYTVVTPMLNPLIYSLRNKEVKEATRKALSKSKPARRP

[4] = citrus-flavored beverage with 50 ppb p-cresol
[5] = grated raw ginger with 600 ppb p-cresol

O=C1CCCCCCCCCCCCCCO1 [Pentalide, pentalide]
p-Cresol Odor Intensity ([1]; 0.01 ppt added): 3.6 points
p-Cresol Odor Intensity ([1]; 0.1 ppt added): 2.9 points
p-Cresol Odor Intensity ([1]; 1 ppb added): 1.4 points
p-Cresol Odor Intensity ([1]; 1 ppt added): 2.6 points
p-Cresol Odor Intensity ([1]; 10 ppb added): 1.0 points
p-Cresol Odor Intensity ([1]; 10 ppt added): 2.0 points
p-Cresol Odor Intensity ([1]; 100 ppb added): 0.6 points
p-Cresol Odor Intensity ([1]; 100 ppt added): 1.9 points
concentration at which the compound masks the p-cresol odor and does not affect the citrus flavor, lower limit [1, 4]: ≥ 0.1 ppt
concentration at which the compound masks the p-cresol odor and does not affect the citrus flavor, upper limit [1, 4]: ≤ 1 ppb
p-Cresol Odor Intensity ([2]; 1 ppb added): 1.1 points
p-Cresol Odor Intensity ([2]; 1 ppt added): 3.6 points
p-Cresol Odor Intensity ([2]; 10 ppb added): 0.9 points
p-Cresol Odor Intensity ([2]; 10 ppt added): 2.8 points
p-Cresol Odor Intensity ([2]; 100 ppt added): 1.9 points
concentration at which the compound masks the p-cresol odor and does not affect the citrus flavor, lower limit [2]: ≥ 10 ppt
concentration at which the compound masks the p-cresol odor and does not affect the citrus flavor, upper limit [2]: ≤ 10 ppb
p-Cresol Odor Intensity ([3]; 1 ppb added): 1.3 points
p-Cresol Odor Intensity ([3]; 1 ppt added): 3.3 points
p-Cresol Odor Intensity ([3]; 10 ppb added): 1.1 points
p-Cresol Odor Intensity ([3]; 10 ppt added): 2.7 points
p-Cresol Odor Intensity ([3]; 100 ppt added): 1.6 points
concentration at which the compound masks the p-cresol odor and does not affect the ginger flavor, lower limit [3, 5]: ≥ 10 ppt
concentration at which the compound masks the p-cresol odor and does not affect the ginger flavor, upper limit [3, 5]: ≤ 1 ppb
effect of suppressing the response of OR9Q2 to p-cresol (olfactory receptor OR9Q2): suppressing the response of OR9Q2 to p-cresol in a concentration-dependent manner
